Laboratory results published in patent publication US9770452B2, “Quinoxaline derivatives as GPR6 modulators” (Takeda Pharmaceutical Company Limited, priority 2012, dated 2017).

Target: T1, GPR6 receptor (Homo sapiens, UniProt P46095)
T1 construct: expressed in transfected cells
Assay: Inhibition of cAMP Activity of GPR6 In Vitro Assay (CHO-K1 cells, HTRF cAMP)
Type: cell-based
Settings: compounds of Compound Table 1; inhibition of constitutive cAMP activity of GPR6 expressed in CHO-K1 cells; approximate IC50; read-out: IC50
Protocol: Inhibition of cAMP Activity of GPR6 In Vitro Assay
This cell based assay measures the ability of compounds to inhibit the constitutive cAMP activity of GPR6 receptor expressed in CHO-K1 cells. CHO cells were stably expressed with GPR6 receptor, whose expression is controlled by a tetracycline inducable element. The cells were cultured in medium containing F12K, 10% FBS, 1% Penn/Strep, 200 ug/mL Hygromycin. GPR6 receptor expression was induced for 20 hrs with 1 μg/ml doxycycline (sigma D9891) in growth media. After addition of doxycycline cells were plated at a density of 250-500 cells per well in half-volume black clear bottom plates (Costar) and place in an incubator (37°, 5% C(O)2) for 20 hours prior to cAMP assays.
Culture media was removed from cells and they were washed with 50 μL of Ringer's Buffer (MgCl2 0.047 mg/mL, NaH2PO4 0.18 mg/mL, Na2HPO4 0.1 mg/mL, KCl 0.34 mg/mL, NaHC(O)3 1.26 mg/mL, D-glucose 1.8 mg/mL, NaCl 7 mg/mL; pH=7.4). Compounds suspended in DMSO were diluted in Ringer's Buffer containing 0.5% fatty acid free BSA and incubated on cells for 45 min at […] and 5% C(O)2. After incubation cells were incubated for 10 min at room temp with Eu-cAMP tracer solution from a Perkin Elmer Lance HTRF UltracAMP assay kit (TRF0264). Then ULight™-anti-cAMP solution from the Lance HTRF kit was added and incubated on a shaker at room temp for 1 hour prior to HTRF detection in a BMG PolarStar Omega.
IC50 curves were generated with a four-parameter logistic equation using GraphPad Prism 5.03.

T1 sequence (P46095 whole entry): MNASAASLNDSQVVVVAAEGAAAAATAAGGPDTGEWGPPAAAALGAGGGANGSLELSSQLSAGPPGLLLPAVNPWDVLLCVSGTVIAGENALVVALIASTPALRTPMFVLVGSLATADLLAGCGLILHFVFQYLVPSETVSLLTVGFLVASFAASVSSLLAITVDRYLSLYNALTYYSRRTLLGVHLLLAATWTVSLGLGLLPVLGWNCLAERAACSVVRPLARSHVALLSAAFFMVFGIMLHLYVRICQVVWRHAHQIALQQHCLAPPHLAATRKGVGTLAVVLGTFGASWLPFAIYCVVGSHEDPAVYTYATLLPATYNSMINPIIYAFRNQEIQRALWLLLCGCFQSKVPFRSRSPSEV

Substance | IC50 [nM]
1-(4-((1-(2-(cyclopropylamino)pyrido[3,4-b]pyrazin-3-yl)piperidin-4-yl)oxy)phenyl)ethanone, 2,2,2-trifluoroacetic acid salt [Cpd 582] | 7
2-(4-(2,4-difluorobenzyl)piperidin-1-yl)-N-(2,2-difluoroethyl)pyrido[3,4-b]pyrazin-3-amine [Cpd 428] | 20
2-(4-(2,4-difluorophenoxy)piperidin-1-yl)-N-isopropylpyrido[3,4-b]pyrazin-3-amine [Cpd 656] | 14
2-(4-(4-chloro-2-fluorophenoxy)piperidin-1-yl)-3-(isopropylamino)quinoxaline-6-carbonitrile, hydrogen chloride salt [Cpd 626] | 90
2-((1-(2-(cyclopropylamino)pyrido[3,4-b]pyrazin-3-yl)piperidin-4-yl)oxy)benzonitrile [Cpd 574] | 4810
2-((2,2-difluoroethyl)amino)-3-(4-(2,4-difluorophenoxy)piperidin-1-yl)-N,N-dimethylpyrido[3,4-b]pyrazine-7-carboxamide, 2,2,2-trifluoroacetic acid salt [Cpd 649] | 44
2-((2,2-difluoroethyl)amino)-3-(4-(2,4-difluorophenoxy)piperidin-1-yl)pyrido[3,4-b]pyrazine-7-carbonitrile, 2,2,2-trifluoroacetic acid salt [Cpd 646] | 538
2-((2,2-difluoroethyl)amino)-3-(4-(2,4-difluorophenoxy)piperidin-1-yl)quinoxaline-6-carbonitrile [Cpd 513] | 71
2-(cyclobutylamino)-3-(4-(2,5-dichlorobenzyl)piperazin-1-yl)quinoxaline-6-carbonitrile, 2,2,2-trifluoroacetic acid salt [Cpd 336] | 960
2-(cyclopropylamino)-3-(4-(2,4-difluorobenzyl)piperazin-1-yl)pyrido[3,4-b]pyrazine-5-carbonitrile, 2,2,2-trifluoroacetic acid salt [Cpd 612] | 114
2-(cyclopropylamino)-3-(4-(2,4-difluorobenzyl)piperidin-1-yl)quinoxaline-6-carbonitrile, 2,2,2-trifluoroacetic acid salt [Cpd 416] | 1510
2-(cyclopropylamino)-3-(4-(2,4-difluorophenoxy)piperidin-1-yl)-N,N-dimethylpyrido[3,4-b]pyrazine-7-carboxamide [Cpd 597] | 89
2-(cyclopropylamino)-3-(4-(2,5-dichloroisonicotinoyl)piperazin-1-yl)quinoxaline-6-carbonitrile [Cpd 265] | 300
2-(cyclopropylamino)-3-(4-(2,5-difluorobenzyl)piperazin-1-yl)quinoxaline-6-carbonitrile, 2,2,2-trifluoroacetic acid salt [Cpd 257] | 310
2-(cyclopropylamino)-3-(4-(2-fluoro-4-methoxybenzyl)piperazin-1-yl)-N,N-dimethylpyrido[3,4-b]pyrazine-7-carboxamide, 2,2,2-trifluoroacetic acid salt [Cpd 614] | 66
2-(cyclopropylamino)-3-(4-(2-fluoro-4-methoxybenzyl)piperazin-1-yl)pyrido[3,4-b]pyrazine-5-carbonitrile, 2,2,2-trifluoroacetic acid salt [Cpd 613] | 92
2-(cyclopropylamino)-3-(4-(2-fluoro-4-methoxyphenoxy)piperidin-1-yl)pyrido[3,4-b]pyrazine-5-carbonitrile, 2,2,2-trifluoroacetic acid salt [Cpd 605] | 36
2-(cyclopropylamino)-3-(4-((2,4-difluorophenyl)fluoromethyl)piperidin-1-yl)quinoxaline-6-carbonitrile, 2,2,2-trifluoroacetic acid salt [Cpd 480] | 72
2-(cyclopropylamino)-3-(4-((2,5-dichlorophenyl)sulfonyl)piperazin-1-yl)quinoxaline-6-carbonitrile [Cpd 226] | 570
2-(cyclopropylamino)-3-(4-((2,5-dimethoxyphenyl)sulfonyl)piperazin-1-yl)quinoxaline-6-carbonitrile, 2,2,2-trifluoroacetic acid salt [Cpd 329] | 1300
2-(cyclopropylamino)-3-(4-((2-fluorophenyl)sulfonyl)piperazin-1-yl)quinoxaline-6-carbonitrile, 2,2,2-trifluoroacetic acid salt [Cpd 241] | 650

Substance | IC50 [nM]
2-(cyclopropylamino)-3-(4-((4-(trifluoromethoxy)phenyl)sulfonyl)piperazin-1-yl)quinoxaline-6-carbonitrile, 2,2,2-trifluoroacetic acid salt [Cpd 283] | 420
2-(cyclopropylamino)-3-(4-(m-tolylsulfonyl)piperazin-1-yl)quinoxaline-6-carbonitrile [Cpd 239] | 4740
2-(cyclopropylamino)-3-(4-(phenylsulfonyl)piperazin-1-yl)quinoxaline-6-carbonitrile [Cpd 162] | 4630
2-(cyclopropylamino)-3-(4-tosylpiperazin-1-yl)quinoxaline-6-carbonitrile [Cpd 240] | 4590
3-(1-(2-(cyclopropylamino)pyrido[3,4-b]pyrazin-3-yl)piperidine-4-carbonyl)-4-fluorobenzonitrile, 2,2,2-trifluoroacetic acid salt [Cpd 587] | 78
3-(1-(7-bromo-2-(cyclopropylamino)pyrido[3,4-b]pyrazin-3-yl)piperidine-4-carbonyl)-4-fluorobenzonitrile [Cpd 602] | 146
3-(4-(2,4-difluorobenzyl)piperazin-1-yl)-2-(isopropylamino)-N,N-dimethylpyrido[3,4-b]pyrazine-7-carboxamide, 2,2,2-trifluoroacetic acid salt [Cpd 634] | 6
3-(4-(2,4-difluorobenzyl)piperazin-1-yl)-N-isopropylpyrazino[2,3-d]pyridazin-2-amine 2,2,2-trifluoroacetate [Cpd 650] | 1000
3-(4-(2,4-difluorobenzyl)piperidin-1-yl)-2-((2-methoxyethyl)amino)quinoxaline-6-carbonitrile [Cpd 518] | 24
3-(4-(2,4-difluorobenzyl)piperidin-1-yl)-2-(isopropylamino)quinoxaline-6-carbonitrile [Cpd 461] | 20
3-(4-(2,4-difluorobenzyl)piperidin-1-yl)-N-(2-methoxyethyl)pyrido[3,4-b]pyrazin-2-amine, 2,2,2-trifluoroacetic acid salt [Cpd 519] | 250
3-(4-(2,4-difluorophenoxy)piperidin-1-yl)-N-(2-methoxyethyl)pyrido[3,4-b]pyrazin-2-amine, 2,2,2-trifluoroacetic acid salt [Cpd 525] | 29
3-(4-(2,4-difluorophenoxy)piperidin-1-yl)-N-isopropylpyrazino[2,3-d]pyridazin-2-amine, 2,2,2-trifluoroacetic acid salt [Cpd 632] | 28
3-(4-(2,4-difluorophenoxy)piperidin-1-yl)-N-isopropylpyrido[3,4-b]pyrazin-2-amine, 2,2,2-trifluoroacetic acid salt [Cpd 620] | 18
3-(4-(2,5-dichlorobenzyl)piperazin-1-yl)-2-(isoxazol-3-ylamino)quinoxaline-6-carbonitrile, 2,2,2-trifluoroacetic acid salt [Cpd 340] | 15400
3-(4-(2,5-dichlorobenzyl)piperazin-1-yl)-N-(1,2,4-triazin-3-yl)quinoxalin-2-amine, 2,2,2-trifluoroacetic acid salt [Cpd 177] | 17800
3-(4-(2,5-dichlorobenzyl)piperazin-1-yl)-N-(2-ethoxyethyl)quinoxalin-2-amine, 2,2,2-trifluoroacetic acid salt [Cpd 167] | 3330
3-(4-(2,5-dichlorobenzyl)piperazin-1-yl)-N-(pyridin-4-yl)quinoxalin-2-amine, 2,2,2-trifluoroacetic acid salt [Cpd 214] | 1470
3-(4-(2,5-dichlorobenzyl)piperazin-1-yl)-N-(pyrimidin-4-yl)quinoxalin-2-amine, 2,2,2-trifluoroacetic acid salt [Cpd 174] | 1670
3-(4-(2,5-dichlorobenzyl)piperazin-1-yl)-N-(tetrahydro-2H-pyran-4-yl)quinoxalin-2-amine, 2,2,2-trifluoroacetic acid salt [Cpd 171] | 1570
3-(4-(2,5-difluorobenzoyl)piperidin-1-yl)-2-(isopropylamino)-N,N-dimethylpyrido[3,4-b]pyrazine-7-carboxamide, 2,2,2-trifluoroacetic acid salt [Cpd 635] | 40
